# Source: patent EP2292587A1, “PHARMACEUTICAL COMPOSITION FOR INHIBITING THE TRANSCRIPTION FACTOR INDUCIBLE BY HYPOXIA, MODULATORS OF PATHOLOGICAL PROCESSES OF ANGIOGENESIS, ONCOGENESIS, INFLAMMATION, APOPTOSIS, AND CELLULAR THERAPY” (Fundacion De La Comunidad Valenciana Centro De …, priority 2008, dated 2009)
# Experiments:
# c-FOS = assay: selectivity luciferase assay, Hek 293-TRE-LUC; type: cell-based; conditions: 0-1 µM, 6 hours
# Description: The selectivity assays with the active compound FM19G11 were performed in white 96-well plates using the recombinant strains Hek 293-TRE-LUC and Hek 293-CRE-LUC which represent the transcriptional activity of transcription factors of the AP-1 complex. The luciferase assay for measuring transcriptional activity was performed using the kit Bright-Glo™ Luciferase Assay System (Promega, Inc., Madison, WI), following the instructions supplied by the manufacturer and the Hek 293-TRE-LUC and Hek 293-CRE-LUC lines contain the response elements of transcription factors of the AP-1 complex, specifically of c-FOS and JUNB, respectively. The Hek 293-TRE-LUC and Hek 293-CRE-LUC lines were provided by Dr. Rosa Farrás.
# [1] = system: AKT/mTOR/p70S6/Cyclin D1 signaling pathway; assay: activation kinetics of mTOR signaling pathway, HCT116/p53+/+; type: cell-based, human; conditions: 0.5 µM
# Description: Due to the crucial role of p53 as a tumor-suppressing agent, it was analyzed in HCT116 cells how FM19G11 affected the activation kinetics of proteins involved in favoring cell cycle progress, specifically the mTOR cell signaling pathway. An increase of cell progress can be due to replicative stress which generates DNA damage (Bartkova, J, Horejsi, Z, Koed, K, Kramer, A, Tort, F, Zieger, K et al., (2005) DNA damage response as a candidate anti-cancer barrier in early human tumorigenesis. Nature 434: 864-70; Bartkova, J, Rezaei, N, Liontos, M, Karakaidos, P, Kletsas, D, Issaeva, N et al., (2006) Oncogene-induced senescence is part of the tumorigenesis barrier imposed by DNA damage checkpoints. Nature 444: 633-7; Di Micco, R, Fumagalli, M, Cicalese, A, Piccinin, S, Gasparini, P, Luise, C et al., (2006) Oncogene-induced senescence is a DNA damage response triggered by DNA hyper-replication. Nature 444: 638-42), it was explored if the DDR triggered by FM19G11 was related to an increase of the cell cycle progress signal modulated by the mTOR signaling pathway. […]
# HCT116/p53+/+ = assay: anchorage-independent growth in semisolid agar, HCT116/p53+/+; type: cell-based, human; conditions: 0.5 µM, 10 days, versus DMSO, p ≤ 0.033
# Description: (§1) Anchorage-independent cell growth is a study which allows predicting the tumorigenicity of tumor cells in vivo. Anchorage-independent cell growth studies were performed for HT29, HCT116/p53^+/+ and HCT116/p53^-/- cells in semisolid agar which were monitored daily to determine the efficiency of the formation of colonies in the presence of carrier (DMSO) or FM19G11. To that end, the starting material was 75 x 10^3 cells suspended in semisolid agar, which were maintained until 10 days later. […] A reduction of the formation of colonies in the HCT116/p53^-/- cells is not observed. The growth of colonies was quantified in three independent experiments by means of counting colonies in the 4 x magnification optical field of an inverted optical microscope.
# HCT116/p53-/- = assay: anchorage-independent growth in semisolid agar, HCT116/p53-/-; type: cell-based, human; conditions: 0.5 µM, 10 days, versus DMSO
# Description: as §1
smiles,measurement,setting,value
"Cc1ccc(C(=O)COC(=O)c2cccc(NC(=O)c3ccc([N+](=O)[O-])cc3[N+](=O)[O-])c2)cc1 [FM19G11, 2-oxo-2-(p-tolyl)ethyl 3-((2,4-dinitro)benzamido)benzoate]",transcriptional levels of Hek 293-TRE-LUC,c-FOS,not affected in any case
same,activation of the AKT/mTOR/p70S6/Cyclin D1 signaling pathway (fold change),[1],≥ 2
same,growth of colonies in semisolid agar,HCT116/p53+/+,significant decrease
same,reduction of the formation of colonies in semisolid agar,HCT116/p53-/-,not observed
